Reference: US20230348376A1 (TEIJIN PHARMA LIMITED, priority 2020, published 2023)
pEC50: −log10 of the molar value.

Experiments:
[1] = tested on: rat oligodendrocyte progenitor cells; test: Promotive activity of rat oligodendrocyte progenitor cell differentiation-2 (immunostaining of MBP); assay type: cell-based; conditions: vitamin D derivative 2 μM, T3 30 nM, 4 days
Procedure, shortened: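 Vitamin D derivatives scored as symbols for promoting differentiation, read out by MBP immunostaining. OPCs taken from supernatant after about 22 h shaking (37 °C, 200 rpm) in separation medium.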

[2] = Evaluation of brain penetration in mice (blood and brain concentration at brain Cmax); assay type: in vivo, mouse; conditions: 1 mg/kg single oral dose, C57BL/6J mice; for Concentration in blood (mean ± SD) at brain Cmax / Concentration in brain (mean ± SD) at brain Cmax: n=3; for Kp: male, C57BL/6J, mouse, brain/plasma, po, 1 mg/kg, read-out: Concentration in brain/in blood ratio at brain Cmax
Procedure, shortened: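 Male C57BL/6J mice (8 weeks, n=3) dosed orally once at 1 […] mg/kg; plasma and brain collected at 0.25, 0.5, 1, 2, 4 and 8 h. Compound extracted with acetonitrile from brain homogenate and plasma, quantified by LC/MS/MS.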

[3] = biological target: T1, human VDR (Homo sapiens, UniProt P11473); test: Evaluation of VDR transcription activity in human osteoblasts (HOS cells), luciferase reporter; conditions: Activity (EC50, VDR transcription activity), HOS cells transfected with human VDR, human RXRα and DR3 luciferase reporter; 21 hours
T1 sequence (P11473 1-427): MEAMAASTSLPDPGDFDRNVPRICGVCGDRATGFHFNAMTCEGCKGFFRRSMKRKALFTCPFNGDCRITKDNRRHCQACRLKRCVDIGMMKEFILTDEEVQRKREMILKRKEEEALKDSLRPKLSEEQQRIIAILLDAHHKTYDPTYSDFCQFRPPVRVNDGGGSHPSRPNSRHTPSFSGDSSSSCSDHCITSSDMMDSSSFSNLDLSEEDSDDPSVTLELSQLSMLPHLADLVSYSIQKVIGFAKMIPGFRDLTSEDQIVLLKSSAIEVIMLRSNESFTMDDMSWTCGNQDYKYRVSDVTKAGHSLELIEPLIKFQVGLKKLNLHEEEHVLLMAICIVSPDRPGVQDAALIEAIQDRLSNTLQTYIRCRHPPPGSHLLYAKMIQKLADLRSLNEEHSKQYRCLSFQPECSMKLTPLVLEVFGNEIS
T1 sequence (P19793 1-462 partner): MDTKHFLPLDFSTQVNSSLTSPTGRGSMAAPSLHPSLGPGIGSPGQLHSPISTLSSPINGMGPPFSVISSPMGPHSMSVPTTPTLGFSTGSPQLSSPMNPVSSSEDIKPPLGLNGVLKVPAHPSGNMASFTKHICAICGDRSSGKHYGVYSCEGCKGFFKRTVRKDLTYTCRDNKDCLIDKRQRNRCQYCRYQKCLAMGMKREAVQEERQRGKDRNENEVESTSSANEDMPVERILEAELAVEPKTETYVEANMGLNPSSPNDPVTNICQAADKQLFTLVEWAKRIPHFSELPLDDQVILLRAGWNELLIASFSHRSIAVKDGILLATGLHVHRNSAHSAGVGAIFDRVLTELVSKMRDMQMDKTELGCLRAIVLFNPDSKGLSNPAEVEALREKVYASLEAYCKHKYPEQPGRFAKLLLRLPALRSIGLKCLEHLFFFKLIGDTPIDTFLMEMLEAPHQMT

Structure (SMILES) | Mean (number of MBP-positive cells/number of Hoechst33342-positive cells) ([1]; Test 2) | Concentration in blood (mean ± SD) at brain Cmax [2] | Concentration in brain (mean ± SD) at brain Cmax [2] | Kp [2] | pEC50 [3] | Concentration in brain/in blood ratio at brain Cmax [2] | Mean (number of MBP-positive cells/number of Hoechst33342-positive cells) ([1]; Test 1)
C=C1[C@H](O)CC(=C/C=C2\CCC[C@]3(C)[C@@H]([C@H](C)CN4CCCC(O)(C(F)F)C4)CC[C@@H]23)C[C@H]1O (single isomer, unassigned) [Compound C036a] | 0.53 | 849 ± 40 nM | 566 ± 89 pmol/g | 0.67 | > 9.00 | – | –
C=C1[C@H](O)CC(=C/C=C2\CCC[C@]3(C)[C@@H]([C@H](C)CN4CCCC(O)(C(F)F)C4)CC[C@@H]23)C[C@H]1O (single isomer, unassigned) [Compound C036b] | 0.22 | 853 ± 89 nM | 495 ± 16 pmol/g | – | 7.00 to 8.00 | 0.58 | –
C=C1/C(=C\C=C2/CCC[C@]3(C)[C@@H]([C@H](C)CN4CC[C@H](C(F)F)C4)CC[C@@H]23)C[C@@H](O)C[C@@H]1O [Compound B020, (1R,3S,Z)-5-(2-((1R,3aS,7aR,E)-1-((S)-1-((S)-3-(difluoromethyl)pyrrolidin-1-yl)propan-2-yl)-7a-methyloctahydro-4H-inden-4-ylidene)ethylidene)-4-methylenecyclohexane-1,3-diol] | – | 676 ± 175 nM | 410 ± 23 pmol/g | 0.61 | 7.00 to 8.00 | – | 0.38
C[C@H](CN1CC[C@H](C(F)F)C1)[C@H]1CC[C@H]2/C(=C/C=C3C[C@@H](O)C[C@H](O)C3)CCC[C@]12C [Compound B022, (1R,3R)-5-(2-((1R,3aS,7aR,E)-1-((S)-1-((S)-3-(difluoromethyl)pyrrolidin-1-yl)propan-2-yl)-7a-methyloctahydro-4H-inden-4-ylidene)ethylidene)cyclohexane-1,3-diol] | – | 316 ± 84 nM | 529 ± 53 pmol/g | 1.67 | 7.00 to 8.00 | – | 0.47
C=C1[C@H](O)CC(=C/C=C2\CCC[C@]3(C)[C@@H]([C@H](C)CN4CC[C@H](C(F)F)C4)CC[C@@H]23)C[C@H]1O [Compound B023, (1R,3R)-5-(2-((1R,3aS,7aR,E)-1-((S)-1-((S)-3-(difluoromethyl)pyrrolidin-1-yl)propan-2-yl)-7a-methyloctahydro-4H-inden-4-ylidene)ethylidene)-2-methylenecyclohexane-1,3-diol] | – | 248 ± 28 nM | 852 ± 48 pmol/g | 3.44 | 8.00 to 9.00 | – | 0.50
C=C1/C(=C\C=C2/CCC[C@]3(C)[C@@H]([C@H](C)CN4CC[C@H](C(C)(F)F)C4)CC[C@@H]23)C[C@@H](O)[C@H](C)[C@@H]1O [Compound B029, (1R,2S,3S,Z)-5-(2-((1R,3aS,7aR,E)-1-((S)-1-((S)-3-(1,1-difluoroethyl)pyrrolidin-1-yl)propan-2-yl)-7a-methyloctahydro-4H-inden-4-ylidene)ethylidene)-2-methyl-4-methylenecyclohexane-1,3-diol] | – | 161 ± 40 nM | 156 ± 15 pmol/g | 0.97 | 8.00 to 9.00 | – | 0.31
C=C1/C(=C\C=C2/CCC[C@]3(C)[C@@H]([C@H](C)CN4CC[C@H](CC(F)F)C4)CC[C@@H]23)C[C@@H](O)C[C@@H]1O [Compound B036] | – | 61 ± 11 nM | 68 ± 36 pmol/g | 1.12 | 7.00 to 8.00 | – | 0.59
C=C1/C(=C\C=C2/CCC[C@]3(C)[C@@H]([C@H](C)CN4CC[C@@H](CC(F)F)C4)CC[C@@H]23)C[C@@H](O)C[C@@H]1O [Compound B037, (1R,3S,Z)-5-(2-((1R,3aS,7aR,E)-1-((S)-1-((S)-3-(2,2-difluoroethyl)pyrrolidin-1-yl)propan-2-yl)-7a-methyloctahydro-4H-inden-4-ylidene)ethylidene)-4-methylenecyclohexane-1,3-diol] | – | 88 ± 19 nM | 74 ± 17 pmol/g | 0.84 | 7.00 to 8.00 | – | 0.49
C=C1[C@H](O)CC(=C/C=C2\CCC[C@]3(C)[C@@H]([C@H](C)CN4CC[C@@H](CC(F)F)C4)CC[C@@H]23)C[C@H]1O [Compound B041, (1R,3R)-5-(2-((1R,3aS,7aR,E)-1-((S)-1-((S)-3-(2,2-difluoroethyl)pyrrolidin-1-yl)propan-2-yl)-7a-methyloctahydro-4H-inden-4-ylidene)ethylidene)-2-methylenecyclohexane-1,3-diol] | – | 207 ± 59 nM | 317 ± 19 pmol/g | 1.53 | 8.00 to 9.00 | – | 0.56
C[C@H](CN1CC[C@H](CC(F)F)C1)[C@H]1CC[C@H]2/C(=C/C=C3C[C@@H](O)C[C@H](O)C3)CCC[C@]12C [Compound B042, (1R,3R)-5-(2-((1R,3aS,7aR,E)-1-((S)-1-((R)-3-(2,2-difluoroethyl)pyrrolidin-1-yl)propan-2-yl)-7a-methyloctahydro-4H-inden-4-ylidene)ethylidene)cyclohexane-1,3-diol] | 0.53 | 79 ± 7 nM | 60 ± 5 pmol/g | 0.75 | 7.00 to 8.00 | – | 0.62
C[C@H](CN1CC[C@H](OCC(F)F)C1)[C@H]1CC[C@H]2/C(=C/C=C3C[C@@H](O)C[C@H](O)C3)CCC[C@]12C [Compound B057, (1R,3R)-5-(2-((1R,3aS,7aR,E)-1-((S)-1-((S)-3-(2,2-difluoroethoxy)pyrrolidin-1-yl)propan-2-yl)-7a-methyloctahydro-4H-inden-4-ylidene)ethylidene)cyclohexane-1,3-diol] | 0.57 | 271 ± 16 nM | 141 ± 8 pmol/g | 0.52 | 6.00 to 7.00 | – | –
C[C@H](CN1CC[C@@H](CCC(F)F)C1)[C@H]1CC[C@H]2/C(=C/C=C3C[C@@H](O)C[C@H](O)C3)CCC[C@]12C [Compound B064, (1R,3R)-5-(2-((1R,3aS,7aR,E)-1-((S)-1-((R)-3-(3,3-difluoropropyl)pyrrolidin-1-yl)propan-2-yl)-7a-methyloctahydro-4H-inden-4-ylidene)ethylidene)cyclohexane-1,3-diol] | 0.61 | 72 ± 11 nM | 38 ± 12 pmol/g | 0.53 | 6.00 to 7.00 | – | –
